For data set [1], the system named is RA metabolism in T47D cells. As to the kind of experiment: Reverse-phase HPLC analysis of radiolabelled RA metabolites in T47D cells. The data set is classed as cell-based, human. Conditions: 1 μM R116010; T47D cells pretreated with 1 μM RA. The method, then:
The T47D cell suspension was prepared as described above and 450 μl was incubated with 0.1 μM [11, 12-^3H(N)]RA for 90 min. After centrifugation for 10 min at 780 g, the supernatant was analyzed for the presence of RA metabolites. Reverse-phase HPLC analysis was carried out as described previously ([Van heusden et al, 1998]).

The target in the next data set is T1, CYP2C11 (Rattus norvegicus, UniProt P08683).
T1 construct: hydroxylation of testosterone (CYP2C11, CYP2A1, CYP3A, CYP2B1/2) in rat liver microsomes; from tissue; host or cells: rat liver, microsomes
T1 sequence (P08683 1-500): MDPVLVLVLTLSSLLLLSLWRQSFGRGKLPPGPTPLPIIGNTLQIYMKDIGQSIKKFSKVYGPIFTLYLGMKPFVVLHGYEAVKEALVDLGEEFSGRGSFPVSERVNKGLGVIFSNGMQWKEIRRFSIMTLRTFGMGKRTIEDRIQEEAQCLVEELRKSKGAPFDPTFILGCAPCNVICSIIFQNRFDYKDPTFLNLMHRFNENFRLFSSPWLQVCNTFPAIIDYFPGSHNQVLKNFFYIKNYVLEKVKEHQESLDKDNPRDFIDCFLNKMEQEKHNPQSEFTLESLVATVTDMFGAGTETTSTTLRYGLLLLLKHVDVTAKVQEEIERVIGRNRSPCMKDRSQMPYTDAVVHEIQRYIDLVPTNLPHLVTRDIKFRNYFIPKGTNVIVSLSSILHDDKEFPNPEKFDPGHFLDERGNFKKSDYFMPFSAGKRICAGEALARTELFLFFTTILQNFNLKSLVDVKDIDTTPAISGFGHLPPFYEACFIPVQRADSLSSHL
In words: Testosterone 2α-hydroxylase in rat liver microsomes. The data set is classed as biochemical.

Another data set addresses T2, CYP2A1 (Rattus norvegicus, UniProt P11711).
T2 construct: hydroxylation of testosterone (CYP2C11, CYP2A1, CYP3A, CYP2B1/2) in rat liver microsomes; from tissue; host or cells: rat liver, microsomes
T2 sequence (P11711 1-492): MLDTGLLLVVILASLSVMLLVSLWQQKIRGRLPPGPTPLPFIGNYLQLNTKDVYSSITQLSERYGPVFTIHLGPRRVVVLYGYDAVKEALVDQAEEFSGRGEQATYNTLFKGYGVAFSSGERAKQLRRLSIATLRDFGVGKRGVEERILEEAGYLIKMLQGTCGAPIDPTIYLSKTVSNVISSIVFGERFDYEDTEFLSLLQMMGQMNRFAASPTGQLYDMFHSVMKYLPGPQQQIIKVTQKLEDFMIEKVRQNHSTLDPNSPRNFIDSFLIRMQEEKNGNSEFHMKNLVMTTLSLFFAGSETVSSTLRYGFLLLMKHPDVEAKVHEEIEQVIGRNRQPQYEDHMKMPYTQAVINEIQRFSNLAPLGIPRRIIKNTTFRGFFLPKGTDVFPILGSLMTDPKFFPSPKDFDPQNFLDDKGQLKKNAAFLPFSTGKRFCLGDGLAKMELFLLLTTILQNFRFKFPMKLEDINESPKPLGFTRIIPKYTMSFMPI
In words: Testosterone 7α-hydroxylase in rat liver microsomes. The data set is classed as biochemical. (Liver microsomes are a subcellular fraction often used to study metabolism.)

The next data set relates to T47D cells. In words: T47D cell proliferation (MTT assay, 7 days). In kind it is cell-based, human. The following applies: for enhancement of the antiproliferative activity of RA: T47D cells. The method, then:
T47D cells were seeded in Falcon® 96-well cell culture plates (Life Technologies, Merelbeke, Belgium) at 2500 cells per well in a total volume of 150 μl. Cells were allowed to adhere to plastic for 24 h. Drugs and/or medium were added to a final volume of 200 μl (day 0). Cells were grown under these conditions for 7 days, with renewal of medium and drugs on days 2 and 5. On day 7, medium was renewed and 25 μl MTT-solution was added, and cells were further incubated for 2 h in a cell incubator. The medium was aspirated and 25 μl Sorensen glycine buffer (0.1 M glycine, 0.1 M NaCl; pH 10.5) was added together with 100 μl DMSO to solubilize the blue MTT-formazan product. […] Data are presented as mean±s.d. of three or four independent experiments. Within an experiment, the result of each experimental condition is the mean of six replicate wells. The IC50-values were calculated by non-linear regression analysis using SigmaPlot 4.01 software.

The test system of another data set is Lewis lung (3LL) tumours. Also on record: method as in Smets et al, manuscript in preparation. The following applies: in vivo; ref Smets et al, manuscript in preparation; cited from earlier work.
A further data set can be described thus: in vivo. The following applies: mouse, po.
The subject of the next data set is CYP3A. In words: Testosterone 6β-hydroxylase in rat liver microsomes. Conditions: probe testosterone.

Method for CYP2A1: (§1) The conversion of androstenedione to estrone by aromatase (CYP19) in human placental microsomes, the conversion of 17-hydroxy-20-dihydroprogesterone to testosterone by 17,20-lyase (CYP17) in rat testicular S10 fractions, and the 2α-, 7α-, 6β-, and 16β-hydroxylation of testosterone (CYP2C11, CYP2A1, CYP3A, CYP2B1/2) in rat liver microsomes were carried out as described ([Vanden Bossche et al, 1990]).
Method for CYP2C11: as §1
Method for CYP3A: as §1
Method for in vivo: Cells (1.5×10^6) were injected intraperitoneally in syngeneic A/J mice. […] Each group consisted of 10 animals for experiments with R116010 and of six animals for experiments with RA. All treatments were performed by oral gavage. […] The control groups were given the vehicle 20% 4-OH-β-cyclodextrine in sterile saline. Mice were daily examined for adverse drug effects. At the end of the experiments, subcutaneous tumours were excised 24 h after the last treatment and weighed to validate the antitumoural effects of the treatment.
Data are represented as box plots showing median group value, 25/75th percentile, 10/90th percentile and outliers. Groups were statistically compared to the vehicle-treated groups using the Mann–Whitney U-test. Significance was defined at the level of P<0.05.

As usually defined, the IC50 is the concentration that inhibits the measured activity by half. A higher IC50 goes with weaker potency. In general, inhibition refers to the relative decrease from the control value, in per cent. `C[C@@H]([C@H](c1ccc(Nc2nc3ccccc3s2)cc1)n1ccnc1)N(C)C` [R116010, [S-(R*,R*)]-N-[4-[2-(dimethylamino)-1-(1H-imidazole-1-yl)propyl]-phenyl]-2-benzothiazolamine]: in data set [1], the “inhibition of RA metabolism (HPLC)” value was “completely inhibited”. In addition, the IC50 on CYP2C11 (Rat liver microsomes), at CYP2A1 (Rat liver microsomes) and in the data set on CYP3A was over 10 µM each time. Also, the inhibition at 10 μM on CYP2C11 (probe testosterone (2α-hydroxylation), 10 μM R116010, rat liver microsomes, read-out: percentage of inhibition, Testosterone 2α-hydroxylase (CYP2C11)) was 28%; on CYP2A1 (probe testosterone (7α-hydroxylation), 10 μM R116010, rat liver microsomes, read-out: percentage of inhibition, Testosterone 7α-hydroxylase (CYP2A1)), 12%; in the data set on CYP3A, 41%. In addition, the “enhancement of the antiproliferative activity of RA” value is given as 1.25 fold in the data set on T47D cells (0.01 μM R116010), 2.6 fold with T47D cells (0.1 μM R116010) and “three-fold” in the data set on T47D cells (1 μM R116010). For the same compound, in the data set on T47D cells (compound alone, 7 days, MTT), the “effect on T47D cell proliferation by itself” value is on record as “no effect”. In the data set on Lewis lung (3LL) tumours, the “growth of subcutaneous mouse Lewis lung (3LL) tumours” value is “inhibit the growth”. In “in vivo”, this compound registered an MTD of 5 mg/kg.

The record behind these values is publication PMC2375285, “Inhibition of all-TRANS-retinoic acid metabolism by R116010 induces antitumour activity” (British Journal of Cancer, 2002).
